Experimental findings from ChEMBL document CHEMBL1212815, “Quinolines and structurally related heterocycles as antimalarials” (Eur J Med Chem, 2010) are described below.

In data set [1] the test system is Plasmodium falciparum. In words: Antimalarial activity against chloroquine-resistant Plasmodium falciparum. In kind it is functional, organism-based.
Data set [2] has as its system Plasmodium falciparum. Put plainly: Antimalarial activity against chloroquine-sensitive Plasmodium falciparum. In kind it is functional, organism-based.
Data set [3] relates to Plasmodium falciparum. Put plainly: Antimalarial activity against chloroquine-resistant Plasmodium falciparum W2. In kind it is functional, organism-based.
For data set [4], the system named is Plasmodium berghei. Put plainly: Antiplasmodial activity against Plasmodium berghei infected in perorally dosed mice (Mus musculus). The class given is functional, organism-based.
The subject of data set [5] is Plasmodium falciparum. In words: Antimalarial activity against chloroquine-resistant Plasmodium falciparum 3D7. In kind it is functional, organism-based. The following applies: read-out: ED50 (the source's name).
Data set [6] can be described thus: Inhibition of Plasmodium falciparum protein farnesyltransferase.
A short description of data set [7]: Toxicity in mouse assessed as maximum tolerated dose. In kind it is organism-based. As to conditions: in vivo, read-out: Activity.
Data set [8] has as its system Plasmodium falciparum. In words: Antimalarial activity against Plasmodium falciparum. In kind it is functional, organism-based.
Data set [9] is described as follows: Inhibition of Plasmodium falciparum DHFR.
In data set [10] the test system is Plasmodium falciparum. In words: Antimalarial activity against chloroquine-resistant Plasmodium falciparum HB3. In kind it is functional, organism-based.
Data set [11] deals with Plasmodium falciparum. Put plainly: Antimalarial activity against chloroquine-resistant Plasmodium falciparum Dd2. In kind it is functional, organism-based.
Data set [12] has as its system Plasmodium falciparum. In words: Selectivity index, ratio of IC50 for Plasmodium falciparum D6 to IC50 for Plasmodium falciparum W2. The class given is functional.
A further data set deals with Plasmepsin II (Plasmodium falciparum, UniProt P46925). Put plainly: Inhibition of Plasmodium falciparum plasmepsin-2.
Data set [13] relates to Plasmodium falciparum. Put plainly: Antimalarial activity against chloroquine-resistant Plasmodium falciparum K1. The class given is functional, organism-based.
Data set [14] can be described thus: Dissociation constant, pKa of the compound. The class given is physicochemical.
Data set [15] deals with Plasmodium falciparum. In words: Antimalarial activity against Plasmodium falciparum FAC8. The class given is functional, organism-based.
In data set [16] the test system is Plasmodium falciparum. In words: Antimalarial activity against chloroquine-resistant Plasmodium falciparum D10. The class given is functional, organism-based.
The subject of data set [17] is Plasmodium falciparum. Put plainly: Antimalarial activity against chloroquine-resistant Plasmodium falciparum FcB1. The class given is functional, organism-based. As to conditions: FcB1/Columbia.
A further data set concerns Plasmodium vinckei. In words: Antiplasmodial activity against Plasmodium vinckei infected in mice (Mus musculus) assessed as reduction in parasitemia measured per day for 4 days. In kind it is functional. The following applies: 96 h.
The test system of data set [18] is Plasmodium berghei. Put plainly: Antiplasmodial activity against Plasmodium berghei infected in mice (Mus musculus) assessed as suppression of parasitaemia at 100 mg/kg, po. The class given is functional.
Data set [19] is described as follows: Inhibition of Plasmodium falciparum falcipain-2.
A further data set relates to Plasmodium chabaudi. Put plainly: Antiplasmodial activity against Plasmodium chabaudi infected in mice (Mus musculus) assessed as reduction in parasitaemia measured at 50 mg/kg, perorally daily for 4 days. The class given is functional, organism-based. Also noted: dose 50 mg/kg.

Each structure is given as a SMILES string. ≈ marks a conversion by molar mass, not a printed value. Calls of active or inactive are those of the source. The rule behind the calls is not given here. A value given as a limit tells only on which side of the number the result lay.

The term IC50 denotes the concentration that gives 50% inhibition. By IC90 is commonly meant the concentration needed for an effect of 90%. The term MIC denotes the lowest concentration found to suppress growth. Lower therefore signals a more susceptible organism. For orientation: pKa means the negative logarithm of the acid dissociation constant. As usually defined, the ED50 is the dose that gives a 50% effect, or the effect in half of the subjects.

Plasmepsin II, sequence (P46925 whole entry): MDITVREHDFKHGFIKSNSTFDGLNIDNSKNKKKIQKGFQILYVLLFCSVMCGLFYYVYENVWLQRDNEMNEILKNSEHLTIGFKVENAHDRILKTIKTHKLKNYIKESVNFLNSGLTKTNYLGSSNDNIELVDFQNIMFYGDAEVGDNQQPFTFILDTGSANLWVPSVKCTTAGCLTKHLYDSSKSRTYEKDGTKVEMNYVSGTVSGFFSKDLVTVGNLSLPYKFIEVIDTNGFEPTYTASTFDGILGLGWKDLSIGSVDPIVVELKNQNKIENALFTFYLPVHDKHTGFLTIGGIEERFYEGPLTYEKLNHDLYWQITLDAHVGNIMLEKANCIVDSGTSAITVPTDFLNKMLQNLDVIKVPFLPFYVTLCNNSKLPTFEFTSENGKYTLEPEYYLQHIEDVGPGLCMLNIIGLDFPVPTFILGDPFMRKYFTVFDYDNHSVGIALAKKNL

With `Clc1ccc2c(N3CCN(Cc4ccccc4Br)CC3)ccnc2c1`, the IC50 in the data set with Plasmodium falciparum [1] amounted to 11400 nM.

Turning to `Clc1ccc2c(N3CCN(CCCN4CCN(c5ccnc6cc(Cl)ccc56)CC4)CC3)ccnc2c1` [PIPERAQUINE], in the data set on Plasmodium falciparum [2], the midpoint of inhibition, the IC50, lay at 36 nM.

For the molecule `CCC(=O)CCCCC[C@@H]1NC(=O)[C@H]2CCCCN2C(=O)[C@H]([C@H](C)CC)NC(=O)[C@H](c2c[nH]c3ccccc3c2=O)NC1=O`, the 50% inhibitory concentration (IC50) with Plasmodium falciparum [2] and with Plasmodium falciparum [1] was 0.04 µg/mL throughout.

For the molecule `Clc1ccc2c(N3CCNCC3)ccnc2c1`, the IC50 in the data set on Plasmodium falciparum [2] and in the data set with Plasmodium falciparum [1] was 1020 nM in each case.

Consider `Clc1ccc2c(N[C@H]3CCN4CCCC[C@@H]4C3)ccnc2c1`, for which the IC50 with Plasmodium falciparum [1] stood at 21 nM; in the data set on Plasmodium falciparum [3], 23.3 nM.

On to `Clc1ccc2c(NC[C@H]3CCN4CCCC[C@@H]4C3)ccnc2c1`, for which the midpoint of inhibition in the data set on Plasmodium falciparum [1], the IC50, lay at 21 nM.

Consider `CCCCCOc1c(OC)cc(NC(C)CCCN)c2nccc(CC)c12` (stereo not given), for which the IC50 in the data set on Plasmodium falciparum [2] amounted to 0.0094 µg/mL; with Plasmodium falciparum [1], 0.0097 µg/mL.

Consider `OC1(C(F)(F)F)CC(c2ccccc2)=NN1c1ccnc2cc(Cl)ccc12` (stereo not given), for which, in the data set on Plasmodium berghei [4] (Plasmodium berghei), the IC50 stood at 1.06 µg/mL.

The molecule `O=C1CSC(c2c(Cl)cccc2Cl)N1CCNc1ccnc2cc(Cl)ccc12` (stereo not given) displayed an IC50 in the data set on Plasmodium falciparum [1] of 13 nM.

Regarding `CCN(CC)Cc1cc(N)cc(Nc2ccnc3cc(Cl)ccc23)c1`, in the data set with Plasmodium berghei [4] (Plasmodium berghei), the 50% inhibitory concentration (IC50) was found to be 18.1 nM.

As to `Cn1cnc(S(=O)(=O)N(Cc2ccccc2)C2Cc3cc(C#N)ccc3N(Cc3cncn3C)C2)c1` (stereo not given), the EC50 in the data set on Plasmodium falciparum [5] was found to be 5 nM. This molecule also registered an IC50 in data set [6] of 0.6 nM.

In the case of `O=C(NCCNc1ccnc2cc(Cl)ccc12)C1CCC2(CC1)OOC1(CCCCC1)OO2`, the Activity with Plasmodium berghei [4] was determined as 80 mg/kg. Further, in data set [7], the MTD was > 960 mg/kg.

On to `N=C(N)c1ccc(OCCCCCOc2ccc(C(=N)N)cc2)cc1` [PENTAMIDINE], for which, in the data set on Plasmodium falciparum [8] (Plasmodium falciparum), it took 2.9 µg/mL to reach half-maximal inhibition (IC50) and the 90% effect level (IC90) was put at 6.5 µg/mL (≈ 19.1 µM).

With `CN(CC(O)CNCc1ccc(Cl)c(Cl)c1)S(=O)(=O)c1cccc2cnccc12` (stereo not given), it took 2 µg/mL (≈ 4.4 µM) to inhibit growth against Plasmodium falciparum [8] (Plasmodium falciparum) (MIC).

The molecule `Clc1ccc2c(NCCNCC3CCC4(CC3)OOC3(CCCCC3)OO4)ccnc2c1` gave an Activity with Plasmodium berghei [4] of 80 mg/kg. In data set [7], the MTD was > 960 mg/kg.

`Cc1cc(NC(=O)CN2CCN(C)CC2)c2cc(NC(=O)Nc3cc(Cl)cc(Cl)c3)ccc2n1` returned an IC50 in data set [9] of 0.0004 µg/mL (≈ 0.000798 µM).

On to `COc1cc2cc(/C=C/C(=O)c3ccc(Cl)cc3Cl)c(Cl)nc2cc1OC`, for which, in the data set with Plasmodium falciparum [8] (Plasmodium falciparum), the half-inhibitory concentration (IC50) was determined as 19000 nM.

For `CCN(CCNc1ccnc2cc(Cl)ccc12)CCNS(=O)(=O)c1ccc2c(N(C)C)cccc2c1`, the 50% inhibitory concentration (IC50) in the data set on Plasmodium falciparum [10] is 17.5 nM; in the data set on Plasmodium falciparum [11] it was 22.7 nM.

Turning to `CN1CC2CCC1C(CNc1ccnc3cc(Cl)ccc13)C2` (stereo not given), in the data set on Plasmodium falciparum [12], the “Ratio IC50” value was >1200.

`CCCCNC(=O)C[C@H](O)[C@H](CC(C)C)NC(=O)[C@@H](NC(=O)c1ccc(Oc2ccc(C(=O)N[C@@H](CC(C)C)C(=O)N[C@@H](CCCCN)C(=O)NCCCC(C)Nc3cc(OC)cc4cccnc34)cc2)cc1)[C@@H](C)CC` (stereo not given in full) yielded an IC50 on Plasmepsin II of 0.59 nM.

Regarding `CCN(CC)Cc1ccc(Nc2ccnc3cc(Cl)ccc23)cc1O` [ISOQUINE], in the data set with Plasmodium falciparum [13], the concentration for half-maximal inhibition (IC50) stood at 6.01 nM.

In turn, `C1CC2CCC1CN2` [ISOQUINUCLIDINE] showed a pKa in [14] of 11.

Turning to `CCOC(=O)c1c(CN2CCCCC2)nc2ccc(Cl)cc2c1-c1ccccc1`, half-maximal inhibition in the data set on Plasmodium falciparum [8] (Plasmodium falciparum) (IC50) required 2.56 µg/mL.

In the case of `CCN(CC)CCCC(C)Nc1ccnc2c(NC(=O)CCCCC(=O)Nc3cccc4c(NC(C)CCCN(CC)CC)ccnc34)cccc12` (stereo not given), in the data set with Plasmodium falciparum [15], the IC50 worked out at 120 nM.

Regarding `O=C1c2ccccc2SCN1CCNc1ccnc2cc(Cl)ccc12`, it took 13 nM to reach half-maximal inhibition with Plasmodium falciparum [1] (IC50).

The molecule `CN(C)CCCN(CCCN(C)C)CCCN1c2ccccc2Sc2ccc(Cl)cc21` came in with a concentration for half-maximal inhibition (IC50) in the data set with Plasmodium falciparum [16] of 120 nM.

For `CC(C)C1=C[C@H]2OC3(CCC(NCCNc4ccnc5cc(Cl)ccc45)CC3)OO[C@@]2(C)CC1.O=C(O)CC(O)(CC(=O)O)C(=O)O` (stereo not given in full), the 50% inhibitory concentration (IC50) in the data set with Plasmodium falciparum [17] was determined as 15 nM. Besides, the ED50 in the data set with Plasmodium vinckei amounted to 5 mg/kg.

`Clc1ccc2c(NCC[C@H]3CCN4CCCC[C@@H]4C3)ccnc2c1` came in with an IC50 with Plasmodium falciparum [1] of 21 nM.

For `COc1cc(NC(C)CCCN)c2nc(C(C)(C)C)ccc2c1` (stereo not given), the Activity in the data set on Plasmodium berghei [18] is 100%.

On to `OC1(C(F)(F)F)CC(c2ccc(Br)cc2)=NN1c1ccnc2cc(Cl)ccc12` (stereo not given), for which, in the data set with Plasmodium berghei [4] (Plasmodium berghei), the IC50 was 1.39 µg/mL.

In [19], `CC1(C(=O)NC2CCCCC2)CCCC(=O)N1CCCCCCNc1ccnc2cc(Cl)ccc12` (stereo not given) displayed a half-inhibitory concentration (IC50) of 17700 nM.

As for `Clc1ccc2c(NCCC[C@H]3CCN4CCCC[C@@H]4C3)ccnc2c1`, the IC50 with Plasmodium falciparum [1] came out at 21 nM.

For the molecule `O=C(CN(CCCNc1ccnc2cc(Cl)ccc12)C(=O)c1ccncc1)NC1CCCCC1`, half-maximal inhibition with Plasmodium falciparum [1] (IC50) required 73 nM.

`COc1cc2cc(/C=C3\CCc4c(OC)cccc4C3=O)c(Cl)nc2cc1OC`: the “inhibition (INH)” value with Plasmodium falciparum [8] is listed as 50%.

In turn, `CC(C)(C)NCc1cc(Nc2ccnc3cc(Cl)ccc23)ccc1F` gave a 50% effective dose (ED50) in the data set on Plasmodium berghei [4] (Plasmodium berghei) of 5.3 mg/kg.

The molecule `Cc1cc(NC(=O)c2ccco2)c2cc(NC(=O)Nc3cccc(C#N)c3)ccc2n1` registered an IC50 in data set [9] of 0.0004 µg/mL (≈ 0.000972 µM).

For the molecule `Clc1cccc(C(Nc2ccnc3cc(Cl)ccc23)c2ccc(CN3CCCC3)cc2)c1` (stereo not given), in the data set with Plasmodium chabaudi, the outcome was Active.

Consider `OC1(C(F)(F)F)CC(c2ccc(Cl)cc2)=NN1c1ccnc2cc(Cl)ccc12` (stereo not given), for which, in the data set with Plasmodium berghei [4] (Plasmodium berghei), the IC50 is 1.39 µg/mL.

On to `CCOC(=O)c1c(C)nc2ccc(Cl)cc2c1-c1ccccc1`, for which the IC50 in the data set on Plasmodium falciparum [8] (Plasmodium falciparum) came out at 4.47 µg/mL.

In the case of `O=C1CCSC(c2ccc(Cl)cc2)N1CCCNc1ccnc2cc(Cl)ccc12` (stereo not given), inhibition in the data set with Plasmodium falciparum [1] was half-maximal at 13 nM (IC50).
